Assay results: article PMC12311865, “In Vitro Evaluation of the Potential Interactions of Zearalenone-14-sulfate and Zearalenone-14-glucuronide with Human Cytochrome P450 Enzymes, Organic Anion Transporting Polypeptides, and ATP-Binding Cassette Multidrug Transporters” (ACS Omega, 2025)
Read-outs that look alike come from different tables or passages of the source.

Columns and labels:
CYP1A2 = target: T1, CYP1A2 (Homo sapiens, UniProt P05177); set-up: purchased Abcam ab211075; method as in our previous study; conditions: ref our previous study; cited from earlier work
T1 sequence (P05177 1-516): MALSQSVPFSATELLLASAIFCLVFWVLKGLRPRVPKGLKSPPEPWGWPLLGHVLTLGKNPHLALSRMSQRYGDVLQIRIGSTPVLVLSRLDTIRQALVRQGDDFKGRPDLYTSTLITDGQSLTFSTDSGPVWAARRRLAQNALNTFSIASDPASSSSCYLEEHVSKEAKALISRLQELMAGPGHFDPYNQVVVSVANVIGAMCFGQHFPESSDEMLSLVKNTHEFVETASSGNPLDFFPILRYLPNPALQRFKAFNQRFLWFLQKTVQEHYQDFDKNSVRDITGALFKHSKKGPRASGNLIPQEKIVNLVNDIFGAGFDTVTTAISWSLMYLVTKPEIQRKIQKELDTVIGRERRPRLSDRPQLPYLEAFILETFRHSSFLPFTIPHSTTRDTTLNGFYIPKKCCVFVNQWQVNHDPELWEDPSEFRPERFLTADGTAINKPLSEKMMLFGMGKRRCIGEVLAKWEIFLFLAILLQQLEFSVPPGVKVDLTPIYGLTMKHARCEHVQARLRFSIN

OATP1B1 = target: T2, OATP1B1 (Homo sapiens, UniProt Q9Y6L6); test: OATP1B1-mediated pyranine uptake in overexpressing A431 cells; type: cell-based
T2 construct: expressed in transfected cells; host or cells: A431
T2 sequence (Q9Y6L6 1-691): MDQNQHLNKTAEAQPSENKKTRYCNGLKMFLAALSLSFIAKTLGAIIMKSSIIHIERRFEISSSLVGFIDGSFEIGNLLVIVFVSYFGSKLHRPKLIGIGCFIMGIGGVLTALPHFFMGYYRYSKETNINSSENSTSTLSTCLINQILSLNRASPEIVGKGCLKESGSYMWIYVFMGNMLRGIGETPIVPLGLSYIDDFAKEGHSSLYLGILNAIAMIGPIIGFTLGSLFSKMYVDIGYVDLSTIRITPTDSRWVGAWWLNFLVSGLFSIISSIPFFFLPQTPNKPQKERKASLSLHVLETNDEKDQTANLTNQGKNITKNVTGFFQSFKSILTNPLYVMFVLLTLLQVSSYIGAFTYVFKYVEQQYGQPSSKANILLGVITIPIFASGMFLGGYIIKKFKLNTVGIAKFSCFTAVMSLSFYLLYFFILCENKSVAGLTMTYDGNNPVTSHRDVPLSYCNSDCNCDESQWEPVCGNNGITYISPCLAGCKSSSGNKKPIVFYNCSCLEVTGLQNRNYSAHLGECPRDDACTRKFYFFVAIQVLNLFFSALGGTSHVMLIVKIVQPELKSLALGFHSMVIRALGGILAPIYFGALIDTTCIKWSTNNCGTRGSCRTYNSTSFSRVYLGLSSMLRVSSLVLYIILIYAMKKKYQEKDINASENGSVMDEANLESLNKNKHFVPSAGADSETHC
Experimental: The human epidermoid carcinoma cell (A431) overexpressing OATP1A2, OATP1B1, OATP1B3, or OATP2B1 transporters and their mock control cells were generated previously as described. , Cell culture was maintained in DMEM supplemented with 10% fetal bovine serum, 2 mM L-glutamine, 100 units/mL penicillin, and 100 μg/mL streptomycin at 37 °C and 5% CO2.
The inhibitory effects of mycotoxins (Z14S and Z14GA) were examined using indirect fluorescence assays, where pyranine and SR101 were used as fluorescent substrates. , A431 cells overexpressing OATP1A2, OATP1B1/3, or OATP2B1 and their mock-transfected controls were seeded at a density of 8 × 10^4 cells/well onto 96-well plates and incubated for 18–22 h prior to transport measurements. The next day, plated cells were washed three times with 200 μL of PBS (phosphate-buffered saline, pH 7.4) and preincubated with 50 μL of transport buffer (pH 5.5; 125 mM NaCl, 4.8 mM KCl, 1.2 mM CaCl2, 1.2 mM KH2PO4, 12 mM MgSO4, 25 mM MES, and 5.6 mM glucose) with or without increasing concentrations of the mycotoxins tested (0.001–20 μM) for 5 min at 37 °C. The transport inhibition measurements were initiated by adding 50 μL of transport buffer containing the proper fluorescent substrate SR101 (0.5 μM, OATP1A2) or pyranine (10 μM for OATP1B1 or 20 μM for OATP1B3 and OATP2B1). After 10 min (OATP1A2), 15 min (OATP1B1 and OATP2B1), or 30 min (OATP1B3) incubation, the transport was terminated by washing the cells three times with ice-cold PBS. Regarding the individual OATP assays, we applied different incubation times to keep the substrate uptake in the linear range, , avoiding substrate depletion or saturation effects, as it is indispensable for the accurate assessment. Using an Enspire plate reader (PerkinElmer, Waltham, MA), the fluorescence was measured at excitation/emission wavelengths of 460/510 nm (pyranine) or 586/605 nm (SR101).
OATP-mediated transport was obtained by subtracting the activity of the mock control cells from the activity of the OATP-expressing cells. The transport activity (%) of the OATPs was calculated by comparing the fluorescence signal obtained in the absence of the compounds tested (set to 100%).

CYP2C9 = target: T3, CYP2C9 (Homo sapiens, UniProt P11712); test: in vitro; type: biochemical; conditions: diclofenac 5 μM, 120 min
T3 construct: purchased Merck
Experimental: Inhibitory actions of ZEN conjugates on CYP2C9 and CYP3A4 enzymes were examined employing CypExpress Cytochrome P450 human kits. , Briefly, incubates (200 μL) contained the substrate (5 μM; diclofenac for CYP2C9 and testosterone for CYP3A4), the CypExpress reagent (6 mg/mL of CYP2C9 kit or 15 mg/mL of CYP3A4 kit; also including the glucose-6-phosphate dehydrogenase enzyme), and the test compounds (each 20 μM) in 0.05 M potassium phosphate buffer (pH 7.5). CYP3A4 assay was supplemented with additional G6P and NADP^+ (both 400 μM). Enzyme assays were started with the addition of the enzyme. After 120 min (CYP2C9) or 180 min (CYP3A4) incubation at 700 rpm and 30 °C in a thermomixer, the reaction was stopped with 100 μL of ice-cold methanol. Then, the samples were centrifuged for 10 min at 14,000g and room temperature. The supernatants were gently removed and directly analyzed by HPLC (see Section ).
Diclofenac and 4′-hydroxydiclofenac (CYP2C9 assay) were quantified using the previously reported HPLC-UV assay, , without modification. Briefly, the isocratic elution, with 1.0 mL/min flow rate, was performed with orthophosphoric acid (6 mM) and acetonitrile (48:52 v/v %) mobile phase, applying a Security Guard (C8, 4.0 × 3.0 mm; Phenomenex, Torrance, CA) precolumn and a Mediterranea Sea8 (C8, 150 × 4.6 mm, 5 μm; Teknokroma, Barcelona, Spain) analytical column at room temperature (injected volume: 20 μL). Diclofenac and 4′-hydroxydiclofenac were detected at 275 nm.

T3 sequence (P11712 whole entry): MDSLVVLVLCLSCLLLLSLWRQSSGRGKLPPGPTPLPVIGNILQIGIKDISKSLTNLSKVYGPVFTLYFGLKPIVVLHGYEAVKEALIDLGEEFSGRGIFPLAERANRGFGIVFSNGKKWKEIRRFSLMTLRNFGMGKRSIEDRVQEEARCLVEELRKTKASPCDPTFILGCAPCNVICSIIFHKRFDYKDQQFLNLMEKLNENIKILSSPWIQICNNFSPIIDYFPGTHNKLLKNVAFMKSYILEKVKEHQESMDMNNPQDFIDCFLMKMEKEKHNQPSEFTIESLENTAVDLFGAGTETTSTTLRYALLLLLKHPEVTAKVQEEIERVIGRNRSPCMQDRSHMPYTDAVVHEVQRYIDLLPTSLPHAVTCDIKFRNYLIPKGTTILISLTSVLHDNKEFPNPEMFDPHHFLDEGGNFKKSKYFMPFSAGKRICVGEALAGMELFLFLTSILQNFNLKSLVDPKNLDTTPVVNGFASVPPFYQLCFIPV

Q: Which IC50 (CYP1A2) does the source give for `C[C@H]1CCCC(=O)CCC/C=C/c2cc(O)cc(O)c2C(=O)O1` [ZEN, Zearalenone] here?
A: 7.8 µM

Q: What does the source list for `C[C@H]1CCCC(=O)CCC/C=C/c2cc(O[C@@H]3O[C@H](C(=O)O)[C@@H](O)[C@H](O)[C@H]3O)cc(O)c2C(=O)O1` [Z14GA, Zearalenone-14-glucuronide]?
A: IC50 (OATP1B1; pyranine 10 μM, 15 min, A431 cells, read-out: IC50 for OATP1B1): > 20 µM; inhibition of CYP2C9 (decrease in metabolite formation) (CYP2C9; each 20 μM): no effects

Q: Which IC50 (OATP1B1) does the source give for `C[C@H]1CCCC(=O)CCC/C=C/c2cc(OS(=O)(=O)O)cc(O)c2C(=O)O1` [Z14S, zearalenone-14-sulfate] here?
A: 0.27 µM

Q: What about the “decrease in OATP1B1 transport activity” value (OATP1B1; 20 μM, pyranine substrate, A431 cells) of the same compound?
A: 80–100%

Q: What about the “stronger inhibition on OATP1B1 compared to ZEN” value (OATP1B1; ratio of IC50 values vs ZEN) of the same compound?
A: more than 30 fold

Q: And the inhibition at 120 min, 20 μM (CYP2C9; human, pH 7.5, each 20 μM, read-out: inhibition of CYP2C9 (decrease in metabolite formation))?
A: ~45%
